Here are results for three compounds from article PMC11173647, “Anti-Inflammatory Activity of Pyrazolo[1,5-a]quinazolines” (Molecules, 2024).

Where two headings read alike, the source gives them in different places.

One series concerns THP-1Blue cells. Kind of series: Cytotoxicity, CellTiter-Glo Luminescent Cell Viability Assay. The format is cell-based, human. The conditions noted are these: 24 h, concentrations up to 50 µM. As to the method: Cytotoxicity was analyzed with a CellTiter-Glo Luminescent Cell Viability Assay Kit from Promega (Madison, WI, USA) according to the manufacturer’s protocol. THP-1Blue cells were treated with varying concentrations of the test compounds (up to 50 µM) and cultivated for 24 h. After treatment, the cells were allowed to equilibrate to room temperature for 30 min, the substrate was added, and the samples were analyzed with a Fluoroscan Ascent FL (Thermo Fisher Scientific, Waltham, MA, USA).

A short description of the next series: Solubility in DMSO. The format is physicochemical.
In series [1] the test system is LPS-induced NF-κB/AP-1 transcriptional activity in THP-1Blue cells. Kind of series: LPS-induced NF-κB/AP-1 reporter (secreted alkaline phosphatase) activity in THP-1Blue cells. The format is cell-based, human. The conditions noted are these: THP-1Blue cells, 30 min pretreatment, 250 ng/mL LPS for 24 h, alkaline phosphatase in supernatant, read-out: AP Production IC50. As to the method: THP-1 cells are a human monocyte cell line that was developed from a monocyte isolated from the peripheral blood of an acute monocytic leukemia patient. This cell line is used as a monocyte/macrophage model in immunology research. The THP-1Blue cells obtained from InvivoGen (San Diego, CA, USA) are THP-1 cells that were stably transfected with a secreted embryonic alkaline phosphatase gene that is under control of a NF-κB/AP-1-inducible promoter. For this study, THP-1Blue cells were cultured at 37 °C in a humidified atmosphere containing 5% CO2 in RPMI 1640 medium (Mediatech Inc., Herndon, VA, USA) supplemented with 10% (v/v) fetal bovine serum (FBS), 100 μg/mL streptomycin, 100 U/mL penicillin, 100 μg/mL phleomycin (Zeocin), and 10 μg/mL blasticidin S (all from Sigma-Aldrich, St. Louis, MO, USA).
To measure the activation of AP-1/NF-κB, the THP-1Blue cells (2 × 10^5 cells/well) were pretreated with the test compounds or dimethyl sulfoxide (DMSO; 1% final concentration) for 30 min, followed by the addition of 250 ng/mL of lipopolysaccharide (LPS; from Escherichia coli strain 0111:B4) for 24 h, and alkaline phosphatase activity was measured in the cell supernatants using the QUANTI-Blue mix (InvivoGen) as the absorbance at 655 nm and compared with positive control samples (LPS). The concentration of the compound that caused 50% inhibition of the NF-κB reporter activity (IC50) was calculated.

Series [2] has as its system carrageenan-induced paw edema. Set-up: method as in PMID 32696514. The conditions noted are these: carrageenan-induced paw edema model, 10 mg/kg; cited from earlier work.
Another series has as its system cyclooxygenase 2 (COX-2). On the set-up: method as in PMID 32696514. The conditions noted are these: cited from earlier work.
The next series concerns the target 5-lipoxygenase (5-LOX). Set-up: method as in PMID 32696514. The conditions noted are these: cited from earlier work.
Series [3] has as its system gastric ulcerogenic effects. On the set-up: method as in PMID 32696514. The conditions noted are these: in vivo; cited from earlier work.
The next series addresses T1, JNK3 (Homo sapiens, UniProt P53779).
T1 construct: purchased Eurofins Pharma Discovery (KINOMEscan)
The experiment in a line: KINOMEscan ATP site-dependent binding assay. The conditions noted are these: duplicate. The procedure: (§1) Binding reactions were performed at room temperature for 1 h, and the fraction of kinase not bound to the test compound was determined by capture with an immobilized affinity ligand and quantified by quantitative polymerase chain reaction. The primary screening at fixed concentrations of the compound was performed in duplicate.

The target of another series is T2, JNK2 (Homo sapiens, UniProt P45984).
T2 construct: purchased Eurofins Pharma Discovery (KINOMEscan)
T2 sequence (P45984 whole entry): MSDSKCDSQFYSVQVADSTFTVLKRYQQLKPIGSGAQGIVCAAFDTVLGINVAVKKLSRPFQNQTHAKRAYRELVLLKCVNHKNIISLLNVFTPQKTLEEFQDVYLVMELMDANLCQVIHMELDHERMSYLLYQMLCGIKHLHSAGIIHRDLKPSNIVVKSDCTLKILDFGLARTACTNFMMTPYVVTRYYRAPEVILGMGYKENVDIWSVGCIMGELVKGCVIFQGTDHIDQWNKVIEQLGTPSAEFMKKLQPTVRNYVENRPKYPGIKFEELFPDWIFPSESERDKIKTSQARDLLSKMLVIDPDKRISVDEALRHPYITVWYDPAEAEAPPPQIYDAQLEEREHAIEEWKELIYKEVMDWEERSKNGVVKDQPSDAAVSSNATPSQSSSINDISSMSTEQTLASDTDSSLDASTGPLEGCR
Kind of series: KINOMEscan ATP site-dependent binding assay. The conditions noted are these: duplicate. The procedure: as §1

The target in another series is T3, JNK1 (Homo sapiens, UniProt P45983).
T3 construct: purchased Eurofins Pharma Discovery (KINOMEscan)
T3 sequence (P45983 whole entry): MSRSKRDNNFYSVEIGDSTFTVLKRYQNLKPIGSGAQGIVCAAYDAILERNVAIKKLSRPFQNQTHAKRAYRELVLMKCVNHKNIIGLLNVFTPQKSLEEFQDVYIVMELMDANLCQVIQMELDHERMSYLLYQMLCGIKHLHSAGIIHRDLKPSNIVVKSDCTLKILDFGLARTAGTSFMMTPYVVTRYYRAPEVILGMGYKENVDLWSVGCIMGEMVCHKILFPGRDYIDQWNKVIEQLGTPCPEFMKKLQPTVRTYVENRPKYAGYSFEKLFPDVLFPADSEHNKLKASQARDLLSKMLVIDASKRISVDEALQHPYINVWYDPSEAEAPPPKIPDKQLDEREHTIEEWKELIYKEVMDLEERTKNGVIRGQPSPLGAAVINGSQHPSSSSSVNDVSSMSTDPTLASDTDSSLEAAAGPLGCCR
Kind of series: KINOMEscan ATP site-dependent binding assay. The conditions noted are these: duplicate. The procedure: as §1

T1 sequence (P53779 whole entry): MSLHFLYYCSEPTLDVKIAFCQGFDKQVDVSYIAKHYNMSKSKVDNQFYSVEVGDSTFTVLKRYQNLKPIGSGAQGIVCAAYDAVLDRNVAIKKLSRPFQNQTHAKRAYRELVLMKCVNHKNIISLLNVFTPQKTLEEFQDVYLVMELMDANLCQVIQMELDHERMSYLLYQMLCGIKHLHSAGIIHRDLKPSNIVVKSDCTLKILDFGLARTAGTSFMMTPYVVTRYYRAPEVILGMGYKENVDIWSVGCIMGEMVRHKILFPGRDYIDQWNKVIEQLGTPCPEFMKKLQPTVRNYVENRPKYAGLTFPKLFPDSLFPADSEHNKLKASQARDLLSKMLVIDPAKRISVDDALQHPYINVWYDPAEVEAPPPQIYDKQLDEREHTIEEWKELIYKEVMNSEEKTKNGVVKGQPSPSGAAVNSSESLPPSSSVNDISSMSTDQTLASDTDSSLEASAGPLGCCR

In the case of `NC(=O)c1cnn2c1nc(OCc1ccccc1)c1ccccc12` [13b, 5-(Benzyloxy)pyrazolo[1,5-a]quinazoline-3-carboxamide], the melting point lay in the range of 208 to 209 °C. Moreover, the Cytotoxicity entry with THP-1Blue cells was “N.T. (no cytotoxicity was found in THP-1Blue cells at concentrations up to 50 µM)”. The “solubility in DMSO” value in the series “Solubility in DMSO” is listed as “low solubility in DMSO”. For the same compound, the IC50 in [1] (Homo sapiens) is 4.81 µM. Besides, the IC50 in series [1] stood at 4.8 ± 1.2 µM.

With `COc1cc(/C=c2/c(=O)[nH]n3c(=O)c4ccccc4nc23)cc(OC)c1OC` [A], the reduction of edema in series [2] was 39%. The “selectivity toward COX-2 versus COX-1” value in the series on cyclooxygenase 2 (COX-2) (COX-2 versus COX-1) is reported as “about 14 fold”. Moreover, the IC50 on cyclooxygenase 2 (COX-2) is 0.047 µM; at 5-lipoxygenase (5-LOX), 2.3 µM. Also, the gastric ulcerogenic effects result in series [3] is “did not exhibit gastric ulcerogenic effects”.

`C[S+]([O-])c1ccc(COc2nc3c(C(N)=O)cnn3c3ccccc23)cc1` (stereo not shown) [compound 16] displayed a melting point of 225 to 226 °C. Also, the Kd at JNK3 came out at 10.4 ± 1.5 µM. Besides, the Kd on JNK2 amounted to 21 ± 2.4 µM. Further, the Kd on JNK1 turned out to be 17 ± 2.1 µM. Besides, the Cytotoxicity result in the series on THP-1Blue cells is reported as “N.T. (no cytotoxicity was found in THP-1Blue cells at concentrations up to 50 µM)”. Further, the IC50 in series [1] (Homo sapiens) is 7.9 ± 1.7 µM.
